Where “and” joins values, the source holds several entries; their conditions need not be identical. Equal entries are not always repeated. Entries after “also recorded” stand apart in the source; their conditions may differ. Where two headings read alike, the source gives them in different places.
Legend:
[1] = tested on: osteoclast precursors in mouse bone marrow; settings: for Osteoclast differentiation: significance of activation/inhibition vs baseline; for Relative TRAP 5b activities, Mean ± SD: relative to mean of baseline group, with 1,25-dihydroxyvitamin D3, 6 days
Description: A method known as mouse bone marrow culture system is the one most widely used to study osteoclast differentiation. Originally, this method was developed by Takahashi et al. (1988a). Osteoclast precursors in mouse bone marrow can be induced to form multinucleated osteoclast-like cells (MNC) in the presence of either an active metabolite of vitamin D3 (1,25(OH)2D3) or parathyroid hormone (PTH). […] They form pits on bone or dentine slices (Takahashi et al. 1988a, Hattersley and Chambers 1989, Shinar et al. 1990); they express high levels of tartrate-resistant acid phosphatase (TRAP) and calcitonin receptors (Takahashi et al. 1988b, Shinar et al. 1990); and they respond to calcitonin (Takahashi et al. 1988a) and prostaglandin E2 (Collins and Chambers 1992). Thus, the method is an ideal one with which to study both stimulators and inhibitors of osteoclast differentiation.
In the original culture system, the osteoclast formation was determined after an 8-day culture. In bone marrow, both non-adherent osteoclast precursors and stromal cells are present, the latter of which are needed to support osteoclast formation. The number of osteoclasts formed is generally determined by counting the number of TRAP-positive MNC containing at least three nuclei (Takahashi et al. 1988a).
We have modified the original assay so that we culture 1×10^6 mouse marrow cells/ml for 6 days. […] Instead of counting of the number of differentiated osteoclasts formed, we measured the amount of TRAP liberated from osteoclasts into the culture medium using a fast, simple TRAP immunoassay (Halleen et al. 1999) presentation in the Annual Meeting of the American Society for Bone and Mineral Research, Sep. 30-Oct. 4, 1999, in St. Louis, Mo., USA.
8-10-week old mice were killed with CO2. Tibia and femora were dissected free from adhering soft tissues. The bone ends were cut off with a scalpel and the marrow was flushed with α-Minimal Essential Medium (α-MEM, Gibco BRL, Paisley, UK) supplemented with 100 IU/ml penicillin and 100 μg/ml streptomycin. A 10 ml syringe with a 27 gauge needle was used for flushing. Cells were centrifuged at 600×G for 10 minutes and the cell pellet was resuspended in -MEM containing 10% fetal calf serum. Cells were allowed to attach to plastic for 2 h at 37° C. in a 5% CO2 incubator to allow removal of monocytes and macrophages. Nonadherent cells were duly removed, and the […] bone marrow cells were cultured in 24-well plates (1×10^6 cells/well=1 ml) for 6 days. Half of the media were changed at day 3 and the treatments replaced. At the end of the culture, the plates were fixed with 2% paraformaldehyde in PBS for 20 minutes. Osteoclast formation was determined by measuring TRAP activity from the culture media using the novel TRAP immunoassay (vide infra), where we use a polyclonal TRAP antiserum prepared in rabbits against purified human bone TRAP. The TRAP antibody was bound to anti-rabbit IgG coated microtiter wells (Gibco BRL, Paisley, UK), and medium TRAP was then bound to the antibody. The activity of bound TRAP was measured in sodium acetate buffer using pNPP as substrate.
In this study, the effect of the lanthanum (III) ion on osteoclast differentiation in the presence of 1,25-dihydroxyvitamin D3 was tested. The following sample groups were included: • Baseline (including vehicle) • Control (Baseline without 1,25-dihydroxyvitamin D3) • Baseline+100 ng/ml lanthanum • Baseline+500 ng/ml lanthanum • Baseline+1000 ng/ml lanthanum • Baseline+5000 ng/ml lanthanum • Baseline+15000 ng/ml lanthanum
Six replicates were included in each group, and the test was performed twice. Baseline without 1,25-dihydroxyvitamin D3 was used as a control to show the test system allows inhibition of osteoclast differentiation to be detected.

[2] = tested on: mouse bone marrow derived osteoprogenitor cells; experiment: In vitro osteoblast differentiation assay (cellular alkaline phosphatase); type: cell-based; settings: for Osteoblast differentiation: significance of activation/inhibition vs baseline
Description: We have established a culture model in which mouse bone marrow derived osteoprogenitor cells first proliferate and then differentiate to osteoblasts capable of forming mineralized bone nodules (Qu et al. 1998, Qu et al. 1999). We confirmed this by following the expression of several markers of the osteoblastic phenotype and by studying the morphology of cultures at light and electron microscopic level. […] Thus, this culture system fulfills requirements of an in vitro model useful for studying differentiation of osteoprogenitor cells into bone synthesizing osteoblasts. […] Animals were killed by cervical dislocation. Both femora were removed and the soft tissues were detached aseptically. Metaphyses from both ends were cut off and bone marrow cells were collected by flushing the diaphysis with culture medium: phenol red-free-α-modified essential medium (α-MEM (Gibco BRL, Paisley, UK)). […] The cells were cultured for 6 days and half of the media […] days. […] Cells were washed with warm PBS and adherent cells were detached using trypsin-EDTA. […] The test substances were added at the beginning of the secondary culture without estrogen, and every time when the medium was changed. The number of osteoblasts formed was determined by measuring cellular alkaline phosphatase (ALP) activity in the culture. […] Louis, Mo., USA), and overnight freezing. ALP activity was determined colorimetrically using p-nitrophenylphosphate as substrate at pH 9.7 and determining the optical density at 405 nm. In parallel, protein contents of the wells were determined by the BIO-RAD protein assay, and the specific ALP activity is expressed as units/mg protein. […] Osteoblast differentiation was determined by measuring cellular alkaline phosphatase (ALP) activities and total protein amounts from cell lysates. The ALP activities were divided with the corresponding protein amounts to obtain specific activities of ALP. The results are shown as relative specific activities obtained by dividing each individual value with the mean value of the baseline group.

[3] = tested on: mature osteoblasts; experiment: In vitro bone formation assay (calcium deposition into bone nodules); type: cell-based, mouse; settings: for Bone formation: significance of activation/inhibition vs baseline; for Effect on bone formation activity of mature osteoblasts, in words: lanthanum (III) / lanthanum (III) ion = all concentrations tested, 100 to 15,000 ng/ml, 17-estradiol 10^−10M
Experimental: The activity of mature osteoblasts can be determined by quantifying their ability to form mineralized bone matrix. This is done by demineralizing the formed bone matrix, and determining the amount of calcium released. Thus, this culture system fulfills requirements of an in vitro model useful for studying the bone formation activity of mature osteoblasts. […] At the end of the culture, the amount of calcium deposited during the culture period was determined, and the amount of bone formation (calcium deposition) calculated. […] Extracts of 50 μl were complexed with 1 ml determined o-cresol-phthalein-complexon. The colorimetric reaction was determined at 570 nm in a spectrophotometer. Absolute calcium concentrations were determined by comparison with a calibrated standard provided by the vendor. In this study, the effect of lanthanum carbonate on bone formation was tested. […] The amount of bone formation was determined by measuring the amount of calcium deposited into bone nodules formed by mature osteoblasts. The results are shown as the amount of calcium released (mmol/L) from the bone nodules after HCl extraction. The baseline values are too low to show the results using relative amounts as was done in the other assays.

[4] = LA number = ng/ml lanthanum, lanthanum (III) ion = 100-15000 ng/ml, 17-estradiol 10^−10 M
[5] = first osteoblast differentiation assay, relative to mean of baseline group, 8 days, LA number = ng/ml lanthanum, Control = Baseline+10^−10 M 17-estradiol
[6] = preliminary osteoblast differentiation assay, relative to mean of baseline group, 8 days, LA number = ng/ml lanthanum, Control = Baseline+10^−10 M 17-estradiol
[7] = second osteoblast differentiation assay, relative to mean of baseline group, 8 days, LA number = ng/ml lanthanum, Control = Baseline+10^−10 M 17-estradiol
[8] = first bone formation assay, calcium released from bone nodules after HCl extraction, LA number = ng/ml lanthanum, Control = Baseline+10^−10M 17β-estradiol
[9] = preliminary bone formation assay, calcium released from bone nodules after HCl extraction, LA number = ng/ml lanthanum, Control = Baseline+10^−10M 17β-estradiol
[10] = second bone formation assay, calcium released from bone nodules after HCl extraction, LA number = ng/ml lanthanum, Control = Baseline+10^−10M 17β-estradiol

Compound: O.O.O.O.O=C([O-])[O-].O=C([O-])[O-].O=C([O-])[O-].[La+3].[La+3] [LA, lanthanum carbonate tetrahydrate]
- Osteoclast differentiation ([1]; Dose 100 ng/ml): − −
- Osteoclast differentiation ([1]; Dose 500 ng/ml): 0
- Osteoclast differentiation ([1]; Dose 1000 ng/ml): − −
- Osteoclast differentiation ([1]; Dose 5000 ng/ml): − − −
- Osteoclast differentiation ([1]; Dose 15000 ng/ml): − − −
- Effect on osteoclast differentiation, in words ([1]; LA number = ng/ml lanthanum, vs baseline with 1,25-dihydroxyvitamin D3): inhibits osteoclast differentiation
- Effect on osteoblast differentiation, in words ([2]; 100 ng/ml lanthanum): stimulate osteoblast differentiation
- Osteoblast differentiation ([2]; Dose 100 ng/ml): + (One character (+ or −) means a p-value between 0.05 and 0.01)
- Osteoblast differentiation ([2]; Dose 500 ng/ml): 0
- Osteoblast differentiation ([2]; Dose 1000 ng/ml): 0
- Osteoblast differentiation ([2]; Dose 5000 ng/ml): − − −
- Osteoblast differentiation ([2]; Dose 15000 ng/ml): − − −
- Effect on osteoblast differentiation, in words [2, 4]: clear dose-dependent response
- Bone formation ([3]; Dose 100 ng/ml): ++ (two characters (++ or −−) a p-value between 0.01 and 0.001)
- Bone formation ([3]; Dose 500 ng/ml): +++ (three characters (+++ or −−−) a p-value <0.001)
- Bone formation ([3]; Dose 1000 ng/ml): +++ (three characters (+++ or −−−) a p-value <0.001)
- Bone formation ([3]; Dose 5000 ng/ml): +++ (three characters (+++ or −−−) a p-value <0.001)
- Bone formation ([3]; Dose 15000 ng/ml): +++ (three characters (+++ or −−−) a p-value <0.001)
- Effect on bone formation activity of mature osteoblasts, in words ([3]; LA number = ng/ml lanthanum, listed as lanthanum (III)): Enhanced bone formation
- Effect on bone formation activity of mature osteoblasts, in words ([3]; LA number = ng/ml lanthanum, listed as lanthanum (III) ion): highly significant activation; also recorded: powerful stimulator of the bone formation activity of mature osteoblasts

Compound: O.O.O.O.O=C([O-])[O-].O=C([O-])[O-].O=C([O-])[O-].[La+3].[La+3] [LA 5000, lanthanum carbonate tetrahydrate]
- Relative TRAP 5b activities, Mean ± SD ([1]; first osteoclast differentiation assay, LA number = ng/ml lanthanum): 0.44 ± 0.06(*)
- Relative TRAP 5b activities, Mean ± SD ([1]; second osteoclast differentiation assay, LA number = ng/ml lanthanum): 0.56 ± 0.27(*)
- Combined results on osteoclast differentiation (relative TRAP 5b activity), Mean ± SD ([1]; tables 4-6 combined, number 18 (LA 100) or 12, LA number = ng/ml lanthanum): 0.50 ± 0.20 (***)
- Effect on osteoblast differentiation, in words [2, 4]: inhibited
- Relative specific activities of intracellular alkaline phosphatase, Mean ± SD [2, 5]: 0.53 ± 0.06(***)
- Relative specific activities of intracellular alkaline phosphatase, replicates 1-8 [2, 5]: 0.54 and 0.59 and 0.55
- Relative specific activities of intracellular alkaline phosphatase, Mean ± SD [2, 6]: 0.47 ± 0.03(***)
- Relative specific activities of intracellular alkaline phosphatase, replicates 1-4 [2, 6]: 0.42 and 0.46 and 0.50 and 0.48
- Relative specific activities or intracellular alkaline phosphatase, Mean ± SD [2, 7]: 0.41 ± 0.10(***)
- Relative specific activities or intracellular alkaline phosphatase, replicates 1-6 [2, 7]: 0.31 and 0.51 (2×) and 0.49 and 0.28 and 0.40
- Combined results on osteoblast differentiation (relative specific ALP activity), Mean ± SD ([2]; tables 8-10 combined, number 18, LA number = ng/ml lanthanum, Control = Baseline+10^−10 M 17-estradiol): 0.48 ± 0.09 (***)
- Effect on bone formation activity of mature osteoblasts, in words ([3]; LA number = ng/ml lanthanum): best responses
- Calcium deposition, Mean ± SD [3, 8]: 1.46 ± 0.10 mmol/L
- Calcium deposition, replicates 1-6 [3, 8]: 1.31 mmol/L and 1.55 mmol/L and 1.56 mmol/L and 1.52 mmol/L and 1.40 mmol/L and 1.39 mmol/L
- Calcium deposition, Mean ± SD [3, 9]: 1.06 ± 0.66 mmol/L
- Calcium deposition, replicates 1-4 [3, 9]: 0.59 mmol/L and 1.64 mmol/L and 0.39 mmol/L and 1.62 mmol/L
- Calcium deposition, Mean ± SD [3, 10]: 1.47 ± 0.20(* mmol/L
- Calcium deposition, replicates 1-8 [3, 10]: 1.08 mmol/L and 1.63 mmol/L and 1.30 mmol/L
- Combined results on bone formation activity of mature osteoblasts (calcium released), Mean ± SD ([3]; tables 13 and 14 combined, number 14, LA number = ng/ml lanthanum, Control = Baseline+10^−10M 17β-estradiol): 1.47 ± 0.16 mmol/L

From patent publication US7078059B2, “Treatment of bone diseases” (Shire Holdings AG, priority 2000, dated 2006)
